# Data reported in ChEMBL document CHEMBL3885881, “DrugMatrix”.
# Species on record: Rattus norvegicus
# Assay: DrugMatrix - Regimen: Daily Repeat
# Type: toxicity, organism-based, Sprague-Dawley
# Set-up: regimen Daily Repeat, gender Male, age 6-8 weeks
# Conditions: in vivo, po, 740 mg/kg, route oral GAVAGE, dose level High, vehicle .5 % CMC; for ABSOLUTE BASOPHIL / ABSOLUTE EOSINOPHIL / ABSOLUTE LYMPHOCYTE / ABSOLUTE MONOCYTE / ABSOLUTE SEGMENTED NEUTROPHIL / BASOPHIL / EOSINOPHIL / ERYTHROCYTE COUNT / HEMATOCRIT / HEMOGLOBIN / LEUKOCYTE COUNT / LYMPHOCYTE / MEAN CORPUSCULAR HEMOGLOBIN / MEAN CORPUSCULAR HEMOGLOBIN CONCENTRATION / MEAN CORPUSCULAR VOLUME / MONOCYTE / NEUTROPHIL / NUCLEATED RED BLOOD CELLS / PLATELET COUNT: tissue Blood; for ALANINE AMINOTRANSFERASE / ALBUMIN / ALKALINE PHOSPHATASE / ASPARTATE AMINOTRANSFERASE / BLOOD UREA NITROGEN / CARBON DIOXIDE / CHLORIDE / CHOLESTEROL / CREATININE / GLUCOSE / LACTATE DEHYDROGENASE / LIPASE / PHOSPHORUS / POTASSIUM / SODIUM / TOTAL BILIRUBIN / TOTAL PROTEIN / URIC ACID: tissue Plasma
smiles,measurement,setting,value
COc1ccccc1[N+](=O)[O-] [2-NITROANISOLE],ABSOLUTE BASOPHIL,"72 h, time 3 day",0 CELLS/uL
same,ABSOLUTE EOSINOPHIL,"72 h, time 3 day",109.33 CELLS/uL
same,ABSOLUTE LYMPHOCYTE,"72 h, time 3 day",13522 CELLS/uL
same,ABSOLUTE MONOCYTE,"72 h, time 3 day",1089.33 CELLS/uL
same,ABSOLUTE SEGMENTED NEUTROPHIL,"72 h, time 3 day",2512.67 CELLS/uL
same,BASOPHIL,"72 h, time 3 day",0%
same,EOSINOPHIL,"72 h, time 3 day",0.67%
same,ERYTHROCYTE COUNT,"72 h, time 3 day",5.38 x10E6/uL
same,HEMATOCRIT,"72 h, time 3 day",32.17%
same,HEMOGLOBIN,"72 h, time 3 day",11.9 G/DL
same,LEUKOCYTE COUNT,"72 h, time 3 day",17.23 x10E3/uL
same,LYMPHOCYTE,"72 h, time 3 day",78.67%
same,MEAN CORPUSCULAR HEMOGLOBIN,"72 h, time 3 day",22.1 pg
same,MEAN CORPUSCULAR HEMOGLOBIN CONCENTRATION,"72 h, time 3 day",37 G/DL
same,MEAN CORPUSCULAR VOLUME,"72 h, time 3 day",59.83 fL
same,MONOCYTE,"72 h, time 3 day",6.33%
same,NEUTROPHIL,"72 h, time 3 day",14.33%
same,NUCLEATED RED BLOOD CELLS,"72 h, time 3 day",0 /100WBC
same,PLATELET COUNT,"72 h, time 3 day",1241.67 x10E3/uL
same,ALANINE AMINOTRANSFERASE,"72 h, time 3 day",84.67 u/L
same,ALBUMIN,"72 h, time 3 day",4.37 G/DL
same,ALKALINE PHOSPHATASE,"72 h, time 3 day",448.33 u/L
same,ASPARTATE AMINOTRANSFERASE,"72 h, time 3 day",103.67 u/L
same,BLOOD UREA NITROGEN,"72 h, time 3 day",14 mg/dL
same,CARBON DIOXIDE,"72 h, time 3 day",22.67 mmol/L
same,CHLORIDE,"72 h, time 3 day",101.67 MEQ/L
same,CHOLESTEROL,"72 h, time 3 day",95.67 mg/dL
same,CREATININE,"72 h, time 3 day",0.18 mg/dL
same,GLUCOSE,"72 h, time 3 day",145 mg/dL
same,LACTATE DEHYDROGENASE,"72 h, time 3 day",412.67 u/L
same,LIPASE,"72 h, time 3 day",9.33 u/L
same,PHOSPHORUS,"72 h, time 3 day",11.6 mg/dL
same,POTASSIUM,"72 h, time 3 day",6.07 MEQ/L
same,SODIUM,"72 h, time 3 day",142.23 MEQ/L
same,TOTAL BILIRUBIN,"72 h, time 3 day",0.23 mg/dL
same,TOTAL PROTEIN,"72 h, time 3 day",5.93 G/DL
same,URIC ACID,"72 h, time 3 day",1.7 mg/dL
same,ABSOLUTE BASOPHIL,"120 h, time 5 day",0 CELLS/uL
same,ABSOLUTE EOSINOPHIL,"120 h, time 5 day",0 CELLS/uL
same,ABSOLUTE LYMPHOCYTE,"120 h, time 5 day",12322.33 CELLS/uL
same,ABSOLUTE MONOCYTE,"120 h, time 5 day",57 CELLS/uL
same,ABSOLUTE SEGMENTED NEUTROPHIL,"120 h, time 5 day",3254 CELLS/uL
same,BASOPHIL,"120 h, time 5 day",0%
same,EOSINOPHIL,"120 h, time 5 day",0%
same,ERYTHROCYTE COUNT,"120 h, time 5 day",5.04 x10E6/uL
same,HEMATOCRIT,"120 h, time 5 day",30.5%
same,HEMOGLOBIN,"120 h, time 5 day",10.83 G/DL
same,LEUKOCYTE COUNT,"120 h, time 5 day",15.63 x10E3/uL
same,LYMPHOCYTE,"120 h, time 5 day",79%
same,MEAN CORPUSCULAR HEMOGLOBIN,"120 h, time 5 day",21.5 pg
same,MEAN CORPUSCULAR HEMOGLOBIN CONCENTRATION,"120 h, time 5 day",35.5 G/DL
same,MEAN CORPUSCULAR VOLUME,"120 h, time 5 day",60.6 fL
same,MONOCYTE,"120 h, time 5 day",0.33%
same,NEUTROPHIL,"120 h, time 5 day",20.67%
same,NUCLEATED RED BLOOD CELLS,"120 h, time 5 day",1 /100WBC
same,PLATELET COUNT,"120 h, time 5 day",1041 x10E3/uL
same,ALANINE AMINOTRANSFERASE,"120 h, time 5 day",76.67 u/L
same,ALBUMIN,"120 h, time 5 day",4.67 G/DL
same,ALKALINE PHOSPHATASE,"120 h, time 5 day",401.67 u/L
same,ASPARTATE AMINOTRANSFERASE,"120 h, time 5 day",101 u/L
same,BLOOD UREA NITROGEN,"120 h, time 5 day",14.33 mg/dL
same,CARBON DIOXIDE,"120 h, time 5 day",33 mmol/L
same,CHLORIDE,"120 h, time 5 day",98.33 MEQ/L
same,CHOLESTEROL,"120 h, time 5 day",92.33 mg/dL
same,CREATININE,"120 h, time 5 day",0.15 mg/dL
same,GLUCOSE,"120 h, time 5 day",127 mg/dL
same,LACTATE DEHYDROGENASE,"120 h, time 5 day",114.33 u/L
same,LIPASE,"120 h, time 5 day",9.67 u/L
same,PHOSPHORUS,"120 h, time 5 day",12.23 mg/dL
same,POTASSIUM,"120 h, time 5 day",6 MEQ/L
same,SODIUM,"120 h, time 5 day",144.43 MEQ/L
same,TOTAL BILIRUBIN,"120 h, time 5 day",0.23 mg/dL
same,TOTAL PROTEIN,"120 h, time 5 day",6.53 G/DL
same,URIC ACID,"120 h, time 5 day",0.9 mg/dL
same,ABSOLUTE BASOPHIL,"[…], time 14 day",0 CELLS/uL
same,ABSOLUTE EOSINOPHIL,"[…], time 14 day",157.6 CELLS/uL
same,ABSOLUTE LYMPHOCYTE,"[…], time 14 day",18755.2 CELLS/uL
same,ABSOLUTE MONOCYTE,"[…], time 14 day",504.8 CELLS/uL
same,ABSOLUTE SEGMENTED NEUTROPHIL,"[…], time 14 day",3782.4 CELLS/uL
same,BASOPHIL,"[…], time 14 day",0%
same,EOSINOPHIL,"[…], time 14 day",0.8%
same,ERYTHROCYTE COUNT,"[…], time 14 day",4.9 x10E6/uL
same,HEMATOCRIT,"[…], time 14 day",34.42%
same,HEMOGLOBIN,"[…], time 14 day",12.78 G/DL
same,LEUKOCYTE COUNT,"[…], time 14 day",23.2 x10E3/uL
same,LYMPHOCYTE,"[…], time 14 day",80.8%
same,MEAN CORPUSCULAR HEMOGLOBIN,"[…], time 14 day",26.14 pg
same,MEAN CORPUSCULAR HEMOGLOBIN CONCENTRATION,"[…], time 14 day",37.14 G/DL
same,MEAN CORPUSCULAR VOLUME,"[…], time 14 day",70.28 fL
same,MONOCYTE,"[…], time 14 day",2.2%
same,NEUTROPHIL,"[…], time 14 day",16.2%
same,NUCLEATED RED BLOOD CELLS,"[…], time 14 day",0 /100WBC
same,PLATELET COUNT,"[…], time 14 day",1231 x10E3/uL
same,ALANINE AMINOTRANSFERASE,"[…], time 14 day",73.4 u/L
same,ALBUMIN,"[…], time 14 day",4.84 G/DL
same,ALKALINE PHOSPHATASE,"[…], time 14 day",271.2 u/L
same,ASPARTATE AMINOTRANSFERASE,"[…], time 14 day",85.6 u/L
same,BLOOD UREA NITROGEN,"[…], time 14 day",17 mg/dL
same,CARBON DIOXIDE,"[…], time 14 day",31.6 mmol/L
same,CHLORIDE,"[…], time 14 day",99.2 MEQ/L
same,CHOLESTEROL,"[…], time 14 day",77 mg/dL
same,CREATININE,"[…], time 14 day",0.21 mg/dL
same,GLUCOSE,"[…], time 14 day",125 mg/dL
same,LACTATE DEHYDROGENASE,"[…], time 14 day",356.6 u/L
same,LIPASE,"[…], time 14 day",9 u/L
same,PHOSPHORUS,"[…], time 14 day",11.68 mg/dL
same,POTASSIUM,"[…], time 14 day",6.84 MEQ/L
same,SODIUM,"[…], time 14 day",142.78 MEQ/L
same,TOTAL BILIRUBIN,"[…], time 14 day",0.28 mg/dL
same,TOTAL PROTEIN,"[…], time 14 day",6.82 G/DL
same,URIC ACID,"[…], time 14 day",1.6 mg/dL
